The source of these data is paper PMC4568418, “Identification of natural inhibitors of Entamoeba histolytica cysteine synthase from microbial secondary metabolites” (Frontiers in Microbiology, 2015).

Like-named read-outs stand apart in the source and are kept apart here. Bounds are passed on as bounds.

Series [1] deals with EhCS1 (Entamoeba histolytica, UniProt O15570). In words: CS inhibitory activity, recombinant EhCS1 (acid-ninhydrin cysteine detection). The format is biochemical. The protocol: (§1) The E. coli BL21 (DE3) cell introduced pET-EhCS (CS1, CS3) construct was used for protein expression. Each EhCSs protein was expressed by 1 mM isopropyl β-D-thiogalactopyranoside induction for 12 h at 30°C. After induction, the E. coli cell was harvested and re-suspended in the lysis buffer (50 mM Tris-HCl, pH 8.0, and 300 mM NaCl) containing 0.5 mM phenylmethylsulfonyl fluoride. The suspension was sonicated and centrifuged at 24,000 ×g for 30 min at 4°C. The histidine-tagged rEhCS proteins were purified from the supernatant fraction using a Ni^2+-NTA column and tagged proteins were eluted with 100–200 mM imidazole in 50 mM Tris-HCl, pH 8.0, and 300 mM NaCl. […].
(§2) For measurement of CS inhibitory activity, 10 μl of sample solution [dimethylsulfoxide (DMSO)/H2O = 1/1 solution] and 30 μl of reaction mixture, composed of 2 μl of 50 mM O-acetyL-L-serine, 2 μl of 50 mM Na2S, 12.5 μl of 200 mM Tris-HCl (pH 7.5), and 13.5 μl of water, was poured into each well of a flat-bottom 96-well plate. After 10 μl of enzyme solution (containing 0.1 μg of rEhCS1 or rEhCS3 in H2O) was added to each well, plates were incubated for 15 min at 37°C. The final concentrations of reagents in each well are; 2 mM O-acetyL-L-serine, 2 mM Na2S, and 50 mM Tris-HCl. The enzymatic reaction was stopped by adding 50 μl of acetic acid (>99.9%), and subsequently the reaction for cysteine detection was started by adding 50 μl of acid-ninhydrin reagent ([Gaitonde, 1967]). The mixture in each well was transferred to a 96-well PCR plate and heated at 95°C for 10 min. After the plate was cooled on ice, the mixture was transferred into a flat-bottom 96-well plate filled with 100 μl of ethanol (EtOH). Absorbance at 560 nm was measured by spectrophotometer (SH-9000Lab, Corona Electric, Ibaraki, Japan). […] To determine whether the sample interferes the acid-ninhydrin reagent reaction, 10 μl of sample solution, 10 μl of water, and 30 μl of 1 mM cysteine solution (cysteine hydrochloric acid salt in water) were mixed in a well of 96-well microtiter plate, and then 50 μl of acetic acid (>99.9%) and 50 μl of acid-ninhydrin reagent were added. The mixture was treated and measured the absorbance at 560 nm as above mentioned to check the effect of the sample to the color reaction.
(§3) Each 5 μl of DMSO solution (1 mg/ml, final concentration 100 μg/ml) of 316 library compounds and 5 μl of water (total 10 μl of DMSO/H2O = 1/1 solution per well) were poured into each well of a 96-well microtiter plate to screen for CS inhibitors. For screening microbial broths, 10 μl of the individual broth extract samples (50% EtOH solution) were poured into each well of a 96-well microtiter plate and dried up in vacuo. After drying, 10 μl of DMSO/H2O = 1/1 solution was added and dissolved. Samples showing more than 50% inhibitory activity and having no inhibitory activities against acid ninhydrin reaction were selected for further evaluation. The inhibition values were measured in duplicate or triplicate. […]; 2.0 to 250 μg/ml for deacetylkinamycin C, deoxyfrenolicin, nanaomycin A, tetracycline and patulin; 1.5 to 200 μg/ml for naphthacemycin A9; 3.1 to 400 μg/ml for xanthofulvin, terreinol and citromycetin; 0.06 to 200 μg/ml for exophillic acid.

Series [2] has as its target EhCS3 (Entamoeba histolytica, UniProt Q401L7). Nature of the series: CS inhibitory activity, recombinant EhCS3 (acid-ninhydrin cysteine detection). It is filed as biochemical. The protocol:
as §1, §2, §3

A short description of series [3]: Cytotoxicity against MRC-5 cells (WST-8). The settings on record: human fibroblast cells MRC-5, 2 days. The format is cell-based. The protocol: (§4) Human fibroblast cells, MRC-5, were plated on 96-well flat bottom plates at a density of 1.5 × 10^4 cells/well with 100 μl of MEM medium (Life Technologies, Grand Islands, NY, USA) containing 10% fetal bovine serum (Hana-nesco Bio, Tokyo, Japan) and 1% penicillin-streptomycin (Life Technologies) and incubated at 37°C with 5% CO2 for 2 days. Test compounds in 5 μl of 50% DMSO–H2O and 100 μl of MEM medium were mixed and added to each well. After 2 days cultivation at 37°C with 5% CO2, cell density and morphological changes were observed under a microscope. After observation, 10 μl of WST-8 solution (Dojindo, Kumamoto, Japan) was added to the cells and the plate was incubated at 37°C with 5% CO2 for 2 h. Then, absorbance at 450 nm was measured by spectrophotometer (SH-9000Lab, Corona Electric). Cytotoxicity was measured in duplicate. Staurosporine (our product, in Kitasato Natural Products Library) was used as a positive (cytotoxic) compound. […]; 0.075 to 10 μg/ml for deacetylkinamycin C, deoxyfrenolicin, nanaomycin A, and naphthacemycin A9; 3.1 to 200 μg/ml for tetracycline and patulin; 9.4 to 75 μg/ml for exophillic acid. IC50 values were calculated by the equation described in the reference ([Arita-Morioka et al., 2015]).
A general note: Formazan colour is commonly taken as a measure of viable cells.

In series [4] the test system is E. histolytica clonal strain HM-1:IMSS cl6 trophozoites. In words: In vitro anti-amebic activity against trophozoites (WST-1 viability). The settings on record: 48 h. The protocol:
Trophozoites were harvested in 3–4 days after inoculation of 1/30 to 1/12 of the total culture volume. After the cultures were chilled on ice for 5 min, trophozoites were collected by centrifugation at 500 ×g for 10 min at 4°C and washed twice with BI-S-33 medium. The obtained trophozoites were suspended in BI-S-33 medium and approximately 1 × 10^4 trophozoites in 200 μl of BI-S-33 medium were poured into each well of a 96-well plate and incubated for 2 h. Subsequently, the medium was removed and 200 μl of BI-S-33 medium or cysteine-deprived BI-S-33 medium containing 1% (v/v) penicillin/streptomycin (Life Technologies) together with test compounds (final concentrations; 0.1, 1, 10, 100 μg/ml for kerriamycin B, kerriamycin C, aggreticin, and xanthofulvin; 0.1, 1, 10, 50, 100 μg/ml for the other compounds) was added to each well and incubated under anaerobic conditions for 48 h. After incubation, the medium was removed and 90 μl of pre-warmed Opti-MEM I (Life Technologies) and 10 μl of WST-1 solution (Dojindo) were added to each well. Viability of trophozoites was detected with absorbance at 450 nm (SH-9000Lab, Corona Electric). Cytotoxicity was measured in triplicate. […] Metronidazole (Sigma–Aldrich, MO, USA) was used as positive control.

Series [5] relates to semaphorin. Set-up: method as in Kumagai et al., 2003. The note with it: ref Kumagai et al., 2003; cited from earlier work.
The test system of series [6] is MRC-5 cells. In words: Cytotoxicity against MRC-5 cells (WST-8). The format is cell-based. The note with it: human fibroblast cells MRC-5, 2 days. The protocol:
as §4

Setting [7] is: recombinant EhCS1, 15 min at 37°C, 2 mM O-acetyl-L-serine, 2 mM Na2S, read-out: IC50 CS1.
Where [8] appears, read: recombinant EhCS3, 15 min at 37°C, 2 mM O-acetyl-L-serine, 2 mM Na2S, read-out: IC50 CS3.
The mark [9] stands for this setting: Entamoeba histolytica, read-out: Cytotoxicity against Entamoeba histolytica IC50, Cys (+).
[10] abbreviates: Entamoeba histolytica, read-out: Cytotoxicity against Entamoeba histolytica IC50, Cys (–).

EhCS3, sequence (Q401L7 entry or part of it): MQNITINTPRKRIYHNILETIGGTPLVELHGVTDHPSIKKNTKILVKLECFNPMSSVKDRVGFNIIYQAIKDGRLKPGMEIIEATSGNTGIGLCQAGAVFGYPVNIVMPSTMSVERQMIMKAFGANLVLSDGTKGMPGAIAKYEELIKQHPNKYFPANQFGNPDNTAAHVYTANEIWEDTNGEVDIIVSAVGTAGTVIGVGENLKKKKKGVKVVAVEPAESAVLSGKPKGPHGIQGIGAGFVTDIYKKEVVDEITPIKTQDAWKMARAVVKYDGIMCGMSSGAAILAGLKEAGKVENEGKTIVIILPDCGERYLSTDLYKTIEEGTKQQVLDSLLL
EhCS1, sequence (O15570 entry or part of it): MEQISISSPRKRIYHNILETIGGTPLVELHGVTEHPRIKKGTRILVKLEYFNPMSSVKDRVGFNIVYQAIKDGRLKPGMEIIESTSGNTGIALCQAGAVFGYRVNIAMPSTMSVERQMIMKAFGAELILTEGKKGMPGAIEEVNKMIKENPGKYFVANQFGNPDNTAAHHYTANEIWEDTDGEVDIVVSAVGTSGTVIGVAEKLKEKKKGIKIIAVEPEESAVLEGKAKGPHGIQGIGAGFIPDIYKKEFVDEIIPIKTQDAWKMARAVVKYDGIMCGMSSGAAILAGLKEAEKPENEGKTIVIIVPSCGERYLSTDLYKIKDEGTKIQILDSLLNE

For orientation: IC50 means the concentration that gives 50% inhibition. For the compound `C[C@@H]1O[C@@H](O[C@@H]2C[C@H](c3ccc4c(c3O)C(=O)C3=C(C4=O)[C@@]4(O[C@H]5CC[C@H](O)[C@H](C)O5)C(=O)C[C@](C)(O)C[C@@]4(O)C=C3)O[C@H](C)[C@H]2O)CC[C@@H]1O` [Aggreticin], the IC50 turned out to be 0.98 ± 0.05 µM in series [1] (setting [7]), 0.64 ± 0.1 µM in series [2] (setting [8]), 54 ± 4.8 µM in series [4] (setting [9]) and 18 ± 0.7 µM in series [4] (setting [10]). The compound also displayed a 50% inhibitory concentration (IC50) at 2 days in series [3] of 23 ± 0.6 µM.

For the compound `Cc1cc(=O)c2c(o1)-c1c(cc(O)c(O)c1C(=O)O)OC2` [Citromycetin], the IC50 in series [1] (setting [7]) and in series [2] (setting [8]) was greater than 1400 µM throughout.

With `C[C@@]1(O)[C@H](O)c2c(c3c(=O)c4cccc(O)c4c(=O)c=3c2=[N+]=[N-])[C@H](O)[C@H]1O` [Deacetylkinamycin C], the IC50 was found to be 21 ± 2.4 µM in series [1]; 22 ± 3.7 µM in series [2]; 2.3 ± 0.1 µM in series [3]; 140 ± 13 µM in series [4] (setting [9]); 18 ± 10 µM in series [4] (setting [10]).

`CCC[C@H]1O[C@H](CC(=O)O)CC2=C1C(=O)c1c(O)cccc1C2=O` [Deoxyfrenolicin]: the IC50 stood at 57 ± 2 µM in series [1] (setting [7]), 53 ± 1.1 µM in series [2] (setting [8]), 1.3 ± 0.04 µM in series [4] (setting [9]) and 0.5 ± 0.1 µM in series [4] (setting [10]). The same compound showed an IC50 at 2 days in series [3] of 4.7 ± 0.2 µM.

`CCCCCCCCCc1cc(OC(=O)c2c(CCCCCCCCC)cc(O)cc2O[C@@H]2O[C@H](CO)[C@@H](O)[C@H](O)[C@H]2O)cc(O)c1C(=O)O` [Exophillic acid]: the IC50 in series [1] (setting [7]) is 24 ± 2.9 µM; in series [4] (setting [9]), greater than 140 µM; in series [4] (setting [10]), greater than 140 µM. Further, in series [2], the “inhibition against EhCS3” value was “no inhibition”. Moreover, the IC50 at 2 days in series [3] is greater than 100 µM.

Regarding `C[C@@H]1O[C@@H](CC(=O)O)CC2=C1C(=O)c1c(O)cccc1C2=O` [Nanaomycin A], the IC50 came to 53 ± 3.9 µM in series [1] (setting [7]), 65 ± 4.4 µM in series [2] (setting [8]), 12 ± 0.4 µM in series [4] (setting [9]) and 0.8 ± 0.04 µM in series [4] (setting [10]). Besides, the IC50 at 2 days in series [3] amounted to 0.7 ± 0.04 µM.

With `COc1cc(C)c(-c2cc(OC)cc3c2C(=O)C2=C(C3=O)C(C)(C)c3cc(O)cc(O)c3C2=O)c(OC)c1` [Naphthacemycin A9], the IC50 in series [1] (setting [7]) was 75 ± 1.8 µM; in series [2] (setting [8]), greater than 490 µM; in series [4] (setting [9]) it was greater than 390 µM; in series [4] (setting [10]), greater than 390 µM. Further, the “inhibition of EhCS3 (in words)” value in series [2] is reported as “no inhibition”. This compound displayed an IC50 at 2 days in series [3] of 16 ± 0.6 µM.

On to `O=C1C=C2C(=CCOC2O)O1` (centres unmarked) [Patulin], for which the IC50 in series [1] is 490 ± 81 µM; in series [2], 470 ± 37 µM; in series [4] (setting [9]), greater than 650 µM; in series [4] (setting [10]) it was 110 ± 12 µM. This compound also returned an IC50 at 2 days in series [3] of 110 ± 4.6 µM.

Consider `Cc1c(O)cc2c(c1O)CO[C@@]1(CCCO1)C2=O` [Terreinol], for which the IC50 in series [1] (setting [7]) and in series [2] (setting [8]) was greater than 1600 µM each time.

In the case of `CN(C)[C@@H]1C(O)=C(C(N)=O)C(=O)[C@@]2(O)C(O)=C3C(=O)c4c(O)cccc4[C@@](C)(O)[C@H]3C[C@@H]12` [Tetracycline, reference compound], the IC50 in series [1] is 170 ± 16 µM; in series [2] it was 190 ± 9.5 µM. In addition, the IC50 at 2 days in series [3] was 430 ± 4.3 µM.

Turning to `CC(=O)c1c(C)c(/C(O)=C2\COc3cc(O)c(O)c(C(=O)O)c3C2=O)cc2c(=O)c3c(C(=O)O)c(O)c(O)cc3oc12` [Xanthofulvin], the IC50 in series [1] (setting [7]) was 7.9 ± 1.3 µM; in series [2] (setting [8]), 110 ± 8.2 µM; in series [4] (setting [9]), greater than 170 µM; in series [4] (setting [10]), greater than 170 µM. Besides, in series [5], the “semaphorin inhibitor IC50” value is 0.09 µg/mL.

Kerriamycin B: the concentration for half-maximal inhibition (IC50) was 0.63 ± 0.07 µM in series [1] (setting [7]); 0.31 ± 0.01 µM in series [2] (setting [8]); 21 ± 0.4 µM in series [6]; 26 ± 1.5 µM in series [4] (read-out: Cytotoxicity against Entamoeba histolytica IC50, Cys (+), BI-S-33 medium with cysteine, anaerobic); 23 ± 0.3 µM in series [4] (read-out: Cytotoxicity against Entamoeba histolytica IC50, Cys (–), cysteine-deprived BI-S-33 medium, anaerobic).
